Structures are written as SMILES. “And” between values parts separate entries of the source, which are not always exact repeats. Equal values may be shown once.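 Protocol summary: plate cells (96-well), add compound at 5 concentrations, incubate 48 h, interpolate endpoints linearly. GI50 is the concentration that inhibits growth by half. TGI: total growth inhibition.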

Holding throughout (assay): DTP human tumour cell line panel, 48 h
Assay [1] has as its system KM12 colon.
The test system of assay [2] is TK-10 renal.
For assay [3], the system named is CAKI-1 renal.
The test system of assay [4] is SR leukemia.
Assay [5] concerns U251 CNS.
Assay [6] has as its system ACHN renal.
Assay [7] has as its system HS 578T breast.
In assay [8] the test system is SK-MEL-5 melanoma.
The subject of assay [9] is IGROV1 ovarian.
Assay [10] concerns NCI-H226 lung.

Broadly, the GI50 is the concentration giving 50% growth inhibition. By TGI is commonly meant the concentration giving total growth inhibition. On to `Cc1[nH]c(/C=C2\C(=O)Nc3ccc(F)cc32)c(C)c1C(=O)NC[C@H](O)CN1CCOCC1`, for which the GI50 is 0.0691 µM in assay [1]; 5.37 µM in assay [2]; 1.66 µM in assay [3]; 3.41 µM in assay [4]; 6.65 µM in assay [5]; 3.49 µM in [6]. For the same compound, the GI50 in assay [7] was 2.12 µM; in [8], 4.04 µM; in [9], 2.73 µM; in assay [10], 2.33 µM. Also, the total growth inhibition concentration (TGI) in [1], in assay [2], in [3], in assay [4], in assay [5] and in assay [6] was over 10 µM each time. Besides, the concentration for total growth inhibition (TGI) in assay [7], in [8], in assay [9] and in [10] was over 10 µM each time.

With `COc1ccc(-c2cn[nH]c2-c2cc(OC)c(OC)c(OC)c2)cc1N`, the concentration for 50% growth inhibition (GI50) in assay [1] is < 0.01 µM and 0.026 µM; in assay [3], < 0.01 µM and 0.0324 µM; in [4], under 0.01 µM; in assay [5], < 0.01 µM and 0.0404 µM; in assay [6] it was < 0.01 µM and 0.044 µM; in [7], < 0.01 µM and 0.0233 µM. Further, the GI50 in assay [8] is < 0.01 µM and 0.0405 µM; in [9], < 0.01 µM and 0.0415 µM. Moreover, the TGI in assay [1], in assay [2], in assay [3], in assay [4], in [5] and in assay [6] was over 100 µM each time. For the same compound, the TGI is over 100 µM in assay [7]; over 100 µM in assay [9]; > 100 µM and 56.3 µM in assay [10].

For the compound `COc1c(O)ccc2c1CN1CCc3cc4c(cc3C1C2)OCO4` (configuration not stated), the TGI was over 100 µM in assay [1]; over 79.6 µM in [2]; over 100 µM in assay [3]; over 100 µM in assay [4]; over 100 µM in assay [5]; over 79 µM in assay [6]. The TGI in assay [7], in assay [8], in assay [9] and in assay [10] was over 100 µM each time.

As to `O=C1CCC2(C=C(Br)C(=O)C(Br)=C2)O1`, the GI50 was 17.4 µM in assay [1]; 2.01 µM in [2]; 0.611 µM in [3]; 2.59 µM in [4]; 14.7 µM in [5]; 1.78 µM in [6]. Besides, the GI50 in assay [7] was 20.4 µM; in assay [8], 16.4 µM; in assay [9], 6.59 µM; in assay [10] it was 17.6 µM. Further, the TGI turned out to be 31.3 µM in assay [1]; 4.14 µM in assay [2]; 1.91 µM in assay [3]; 9.69 µM in assay [4]; 28.9 µM in assay [5]; 3.19 µM in [6]. Moreover, the TGI in assay [7] was found to be 57.3 µM; in [8], 30 µM; in [9] it was 15.6 µM; in [10], 36.2 µM.

With `CC1(C)OCC(CO)(Nc2nc(N3CC3)nc(N3CC3)n2)CO1`, the concentration for total growth inhibition (TGI) in [1] was 43.3 µM; in assay [2], 67.5 µM; in [3], 13.8 µM; in [4] it was 28.9 µM; in assay [5], 31.7 µM; in [6], 13.9 µM. Besides, the TGI in assay [7] amounted to 42.6 µM; in assay [8], 22.1 µM; in assay [9], 58.5 µM; in [10] it was 28.5 µM.

Regarding `O=C(C(Br)Br)C(Br)C(Br)c1ccccc1` (configuration not stated), the GI50 is 14.2 µM in [1]; 2.47 µM in assay [2]; 1.78 µM in assay [3]; 1.61 µM in assay [4]; 2.96 µM in assay [5]; 1.68 µM in [6]. Further, the GI50 in assay [7] was 43.5 µM; in [8], 10.6 µM; in [9] it was 3.56 µM; in assay [10] it was 3.31 µM. Further, the TGI in assay [1] amounted to 28.5 µM; in [2], 4.78 µM; in assay [3] it was 3.37 µM; in [4], 3.68 µM; in assay [5], 10.8 µM; in assay [6] it was 3.18 µM. The concentration for total growth inhibition (TGI) in assay [7] was over 100 µM; in [8], 22.7 µM; in assay [9] it was 11.5 µM; in assay [10] it was 15.4 µM.

With `O=C(NC(=S)Nc1ccc(Cl)cc1)c1ccccc1`, the GI50 in assay [1] was over 100 µM; in assay [2], over 100 µM; in assay [3] it was over 79.7 µM; in assay [4], over 100 µM; in assay [5], over 77.2 µM; in assay [6], over 100 µM. Further, the GI50 in [7] was 38.8 µM; in assay [8] it was over 100 µM; in assay [9] it was over 87.7 µM; in [10] it was over 100 µM. The total growth inhibition concentration (TGI) in [1], in [2], in assay [3], in assay [4], in assay [5] and in [6] was over 100 µM in each case. The TGI in [7], in assay [8], in assay [9] and in assay [10] was over 100 µM throughout.

Take `O=C(Oc1ccc(CCl)cc1)c1ccccc1`: the concentration for 50% growth inhibition (GI50) was 0.166 µM in [1]; 0.174 µM in [2]; 0.16 µM in [3]; 0.0594 µM in assay [4]; 0.138 µM in assay [5]; 0.119 µM in assay [6]. The GI50 in assay [7] is 0.121 µM; in [8], 0.447 µM; in [9], 0.212 µM; in assay [10], 0.185 µM. Moreover, the TGI in [1] was determined as 0.323 µM; in assay [2], 0.33 µM; in [3], 0.303 µM; in [4], 0.423 µM; in assay [5], 0.268 µM; in assay [6], 0.246 µM. Besides, the concentration for total growth inhibition (TGI) in [7] worked out at 0.438 µM; in assay [8] it was 1.64 µM; in assay [9], 0.419 µM; in assay [10], 0.437 µM.
